We go through seven compounds from patent US12258327B2, “5-membered heteroaryl-containing aminopyridine compounds as EGFR inhibitors” (YUHAN CORPORATION, priority 2021, dated 2025).

Assay [1] deals with EGFR del19/T790M/C797S (Homo sapiens, UniProt P00533, C797S/DEL746-750/T790M). Kind of assay: Biochemical EGFR kinase assay (Lance Ultra TR-FRET), triple mutant del19/T790M/C797S. The conditions noted are these: Km ATP. The essentials: (§1)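 Step 1: compound in kinase buffer, 0.003–10 μM. Step 2: kinase reaction 1 h at room temperature. Step 4: TR-FRET read at 615/665 nm; IC50 calculated.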
(In general: In TR-FRET formats the signal depends on donor and acceptor labels being close together.)

The target of assay [2] is EGFR L858R/T790M/C797S (Homo sapiens, UniProt P00533, C797S/L858R/T790M). In words: Biochemical EGFR kinase assay (Lance Ultra TR-FRET), triple mutant L858R/T790M/C797S. Particulars: Km ATP. The method, boiled down:
as §1

Assay [3] addresses EGFR del19/C797S (Homo sapiens, UniProt P00533, C797S/DEL746-750). In words: Biochemical EGFR kinase assay (Lance Ultra TR-FRET), double mutant del19/C797S. The method, boiled down:
as §1

Assay [4] deals with EGFR L858R/C797S (Homo sapiens, UniProt P00533, C797S/L858R). In words: Biochemical EGFR kinase assay (Lance Ultra TR-FRET), double mutant L858R/C797S. The method, boiled down:
as §1

For assay [5], the target named is EGFR wildtype (WT) (Homo sapiens, UniProt P00533). Kind of assay: Biochemical EGFR kinase assay (Lance Ultra TR-FRET), wildtype. The method, boiled down: as §1
Where [6] appears, read: read-out: IC50 del19/T790M/C797S (nM) Km ATP.
Where [7] appears, read: read-out: IC50 L858R/T790M/C797S (nM) Km ATP.
[8] abbreviates: Km ATP, read-out: IC50 del19/C797S (nM) Km ATP.
The mark [9] stands for this setting: Km ATP, read-out: IC50 L858R/C797S (nM) Km ATP.
The mark [10] stands for this setting: Km ATP, read-out: IC50 WT (nM) Km ATP.

Read-outs that look alike come from different tables or passages of the source.

Chain of EGFR L858R/C797S (P00533 25-1210 C797S/L858R): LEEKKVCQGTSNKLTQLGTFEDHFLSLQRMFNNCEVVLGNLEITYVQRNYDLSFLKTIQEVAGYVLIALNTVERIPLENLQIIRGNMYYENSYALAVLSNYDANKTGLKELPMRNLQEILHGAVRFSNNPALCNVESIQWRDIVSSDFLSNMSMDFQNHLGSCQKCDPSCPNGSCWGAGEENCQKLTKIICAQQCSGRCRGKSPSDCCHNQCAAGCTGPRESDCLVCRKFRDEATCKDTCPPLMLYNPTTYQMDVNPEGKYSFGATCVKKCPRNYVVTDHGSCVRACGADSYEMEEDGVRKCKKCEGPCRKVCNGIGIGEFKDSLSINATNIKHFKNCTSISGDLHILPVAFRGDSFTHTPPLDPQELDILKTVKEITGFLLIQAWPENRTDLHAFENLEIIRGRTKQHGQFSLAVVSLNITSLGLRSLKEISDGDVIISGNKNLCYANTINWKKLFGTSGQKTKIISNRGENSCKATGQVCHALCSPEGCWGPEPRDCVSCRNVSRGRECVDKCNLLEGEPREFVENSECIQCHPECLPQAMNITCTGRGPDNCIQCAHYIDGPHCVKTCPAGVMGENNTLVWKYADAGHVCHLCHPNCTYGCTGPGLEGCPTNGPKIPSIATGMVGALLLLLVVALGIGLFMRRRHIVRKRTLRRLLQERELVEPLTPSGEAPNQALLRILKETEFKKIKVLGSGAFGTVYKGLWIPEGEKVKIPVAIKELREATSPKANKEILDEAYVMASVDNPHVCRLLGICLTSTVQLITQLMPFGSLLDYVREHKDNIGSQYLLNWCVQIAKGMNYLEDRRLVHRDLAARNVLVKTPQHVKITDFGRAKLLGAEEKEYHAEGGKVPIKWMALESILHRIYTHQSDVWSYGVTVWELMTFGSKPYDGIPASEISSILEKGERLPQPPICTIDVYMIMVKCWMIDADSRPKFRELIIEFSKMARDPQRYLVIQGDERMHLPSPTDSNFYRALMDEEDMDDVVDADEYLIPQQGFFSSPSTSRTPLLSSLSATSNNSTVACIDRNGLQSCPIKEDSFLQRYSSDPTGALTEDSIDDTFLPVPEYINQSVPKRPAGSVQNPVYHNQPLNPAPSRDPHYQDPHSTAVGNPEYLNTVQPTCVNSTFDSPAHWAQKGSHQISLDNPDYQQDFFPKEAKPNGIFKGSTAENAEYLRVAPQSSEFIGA
Chain of EGFR wildtype (WT) (P00533 25-1210): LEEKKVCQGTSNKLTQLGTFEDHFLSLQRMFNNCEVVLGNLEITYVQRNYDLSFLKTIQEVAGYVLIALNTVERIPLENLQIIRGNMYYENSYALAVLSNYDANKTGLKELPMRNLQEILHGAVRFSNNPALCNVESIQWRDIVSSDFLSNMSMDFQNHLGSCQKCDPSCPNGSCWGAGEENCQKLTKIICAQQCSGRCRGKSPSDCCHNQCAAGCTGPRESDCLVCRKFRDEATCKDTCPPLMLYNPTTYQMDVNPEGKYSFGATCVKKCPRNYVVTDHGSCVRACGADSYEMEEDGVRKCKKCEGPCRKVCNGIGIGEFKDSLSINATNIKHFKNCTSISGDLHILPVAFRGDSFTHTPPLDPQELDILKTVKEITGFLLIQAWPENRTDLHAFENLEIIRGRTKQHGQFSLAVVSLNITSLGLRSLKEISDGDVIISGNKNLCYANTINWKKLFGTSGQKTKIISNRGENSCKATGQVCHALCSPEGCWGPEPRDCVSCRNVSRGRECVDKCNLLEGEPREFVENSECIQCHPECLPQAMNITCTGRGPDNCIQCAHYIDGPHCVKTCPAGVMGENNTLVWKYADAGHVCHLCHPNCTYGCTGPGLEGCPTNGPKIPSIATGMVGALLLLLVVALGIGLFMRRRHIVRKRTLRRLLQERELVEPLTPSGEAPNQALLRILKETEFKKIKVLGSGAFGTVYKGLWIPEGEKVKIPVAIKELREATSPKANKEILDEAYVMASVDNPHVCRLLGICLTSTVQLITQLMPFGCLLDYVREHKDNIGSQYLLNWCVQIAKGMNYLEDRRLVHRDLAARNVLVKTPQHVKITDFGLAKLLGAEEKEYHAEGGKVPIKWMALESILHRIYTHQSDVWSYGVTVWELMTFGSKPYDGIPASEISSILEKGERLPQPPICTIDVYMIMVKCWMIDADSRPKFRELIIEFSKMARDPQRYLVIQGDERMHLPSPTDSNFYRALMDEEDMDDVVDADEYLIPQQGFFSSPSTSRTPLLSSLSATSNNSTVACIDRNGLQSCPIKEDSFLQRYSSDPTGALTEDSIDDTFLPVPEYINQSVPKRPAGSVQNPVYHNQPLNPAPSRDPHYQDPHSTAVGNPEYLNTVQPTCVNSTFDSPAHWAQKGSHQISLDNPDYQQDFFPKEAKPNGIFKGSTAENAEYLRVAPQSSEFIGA
Chain of EGFR del19/T790M/C797S (P00533 with tags, fused parts or gaps DEL746-750/T790M/C797S): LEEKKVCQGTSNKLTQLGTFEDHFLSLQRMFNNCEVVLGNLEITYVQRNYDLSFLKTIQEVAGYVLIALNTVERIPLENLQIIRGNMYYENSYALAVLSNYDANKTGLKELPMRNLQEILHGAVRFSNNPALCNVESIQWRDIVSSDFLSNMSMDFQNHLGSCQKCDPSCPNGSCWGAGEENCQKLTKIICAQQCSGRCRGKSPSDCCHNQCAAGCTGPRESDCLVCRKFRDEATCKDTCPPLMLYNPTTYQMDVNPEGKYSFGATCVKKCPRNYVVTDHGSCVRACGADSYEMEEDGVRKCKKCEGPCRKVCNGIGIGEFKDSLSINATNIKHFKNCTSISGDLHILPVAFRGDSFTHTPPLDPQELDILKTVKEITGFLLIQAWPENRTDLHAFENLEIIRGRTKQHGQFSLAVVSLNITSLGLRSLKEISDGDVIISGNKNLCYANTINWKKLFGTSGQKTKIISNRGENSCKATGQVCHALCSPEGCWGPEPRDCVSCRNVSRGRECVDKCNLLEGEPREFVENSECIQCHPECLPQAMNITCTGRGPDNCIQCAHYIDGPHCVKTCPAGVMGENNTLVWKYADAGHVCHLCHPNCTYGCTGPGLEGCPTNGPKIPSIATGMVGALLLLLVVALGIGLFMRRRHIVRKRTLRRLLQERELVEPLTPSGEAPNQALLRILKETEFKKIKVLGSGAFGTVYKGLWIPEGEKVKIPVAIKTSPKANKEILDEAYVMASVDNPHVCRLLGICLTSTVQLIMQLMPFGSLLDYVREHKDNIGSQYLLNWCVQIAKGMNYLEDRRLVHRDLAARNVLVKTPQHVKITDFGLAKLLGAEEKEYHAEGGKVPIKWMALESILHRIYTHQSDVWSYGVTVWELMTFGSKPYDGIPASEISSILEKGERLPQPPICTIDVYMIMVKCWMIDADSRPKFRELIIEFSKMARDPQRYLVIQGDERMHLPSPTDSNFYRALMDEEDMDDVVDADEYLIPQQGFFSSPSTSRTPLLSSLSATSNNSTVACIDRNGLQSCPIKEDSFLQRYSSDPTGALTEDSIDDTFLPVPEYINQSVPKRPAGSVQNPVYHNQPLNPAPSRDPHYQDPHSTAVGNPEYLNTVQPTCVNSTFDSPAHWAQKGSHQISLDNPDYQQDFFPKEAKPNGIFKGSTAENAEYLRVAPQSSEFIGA
Chain of EGFR L858R/T790M/C797S (P00533 25-1210 T790M/C797S/L858R): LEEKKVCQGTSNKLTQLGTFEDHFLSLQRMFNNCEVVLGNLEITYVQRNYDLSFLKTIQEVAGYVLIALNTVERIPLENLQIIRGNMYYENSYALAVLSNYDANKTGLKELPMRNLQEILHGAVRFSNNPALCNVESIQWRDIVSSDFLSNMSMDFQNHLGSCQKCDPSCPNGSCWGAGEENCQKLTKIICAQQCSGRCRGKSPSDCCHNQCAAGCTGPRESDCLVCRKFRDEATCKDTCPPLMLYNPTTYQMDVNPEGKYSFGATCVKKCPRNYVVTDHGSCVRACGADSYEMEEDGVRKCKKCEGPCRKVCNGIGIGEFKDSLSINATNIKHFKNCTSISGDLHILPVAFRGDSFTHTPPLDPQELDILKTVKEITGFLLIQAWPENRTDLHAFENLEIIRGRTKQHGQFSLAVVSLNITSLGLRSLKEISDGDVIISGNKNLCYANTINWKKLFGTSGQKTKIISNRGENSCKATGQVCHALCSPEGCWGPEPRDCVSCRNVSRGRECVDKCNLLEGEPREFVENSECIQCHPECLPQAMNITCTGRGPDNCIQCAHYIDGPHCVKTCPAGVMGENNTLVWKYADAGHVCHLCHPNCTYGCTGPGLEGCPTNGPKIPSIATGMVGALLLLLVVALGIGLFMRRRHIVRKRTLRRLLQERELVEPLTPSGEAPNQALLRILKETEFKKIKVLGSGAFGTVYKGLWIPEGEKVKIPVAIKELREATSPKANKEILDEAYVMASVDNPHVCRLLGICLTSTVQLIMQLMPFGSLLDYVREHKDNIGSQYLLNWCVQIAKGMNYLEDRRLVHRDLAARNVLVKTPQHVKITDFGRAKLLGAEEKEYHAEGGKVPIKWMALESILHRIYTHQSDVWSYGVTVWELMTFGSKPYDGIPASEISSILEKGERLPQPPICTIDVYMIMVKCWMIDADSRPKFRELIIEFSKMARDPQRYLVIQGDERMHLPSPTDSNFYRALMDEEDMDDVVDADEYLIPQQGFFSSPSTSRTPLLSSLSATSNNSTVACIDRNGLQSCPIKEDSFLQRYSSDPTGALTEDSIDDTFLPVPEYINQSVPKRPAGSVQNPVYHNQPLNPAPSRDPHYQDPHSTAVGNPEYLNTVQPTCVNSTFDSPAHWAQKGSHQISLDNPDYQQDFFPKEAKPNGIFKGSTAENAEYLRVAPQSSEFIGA

As for `O=S(=O)(C1CC1)n1cc(-c2cc(Nc3ncc(-c4ccn(C(F)F)n4)c(N[C@H]4CC[C@@H](CO)CC4)n3)ccn2)cn1` [Example 364, ((1s,4s)-4-((2-((2-(1-(Cyclopropylsulfonyl)-1H-pyrazol-4-yl)pyridin-4-yl)amino)-5-(1-(difluoromethyl)-1H-pyrazol-3-yl)pyrimidin-4-yl)amino)cyclohexyl)methanol], the IC50 in assay [1] (read-out: IC50 del19/T790M/C797S, Km ATP) amounted to 0.4 nM; in assay [2] (read-out: IC50 L858R/T790M/C797S, Km ATP) it was 0.8 nM; in assay [3] (Km ATP, read-out: IC50 del19/C797S, Km ATP) it was 7.9 nM; in assay [4] (Km ATP, read-out: IC50 L858R/C797S, Km ATP), 9 nM; in assay [5] (Km ATP, read-out: IC50 WT, Km ATP), 55.6 nM.

On to `CC(C)Nc1cc(Nc2ccnc(-c3cnn(S(=O)(=O)C4CC4)c3)n2)ncc1-c1ccn(CC(F)F)n1` [Example 248, N^2-(2-(1-(Cyclopropylsulfonyl)-1H-pyrazol-4-yl)pyrimidin-4-yl)-5-(1-(2,2-difluoroethyl)-1H-pyrazol-3-yl)-N^4-isopropylpyridine-2,4-diamine], for which the IC50 in assay [1] (setting [6]) is 0.5 nM; in assay [2] (setting [7]) it was 0.3 nM; in assay [3] (setting [8]) it was 14.7 nM; in assay [4] (setting [9]), 4.8 nM; in assay [5] (setting [10]) it was 286 nM.

With `C[C@]1(O)CC[C@@H](Nc2cc(Nc3ccnc(-c4cnn(CC(F)(F)C(F)F)c4)n3)ncc2-c2ccn(C(F)F)n2)CC1` [Example 322, (1s,4s)-4-((5-(1-(Difluoromethyl)-1H-pyrazol-3-yl)-2-((2-(1-(2,2,3,3-tetrafluoropropyl)-1H-pyrazol-4-yl)pyrimidin-4-yl)amino)pyridin-4-yl)amino)-1-methylcyclohexan-1-ol], the IC50 in assay [1] (setting [6]) came out at 1.9 nM; in assay [2] (setting [7]), 0.6 nM; in assay [3] (setting [8]), 176 nM; in assay [4] (setting [9]), 15.5 nM; in assay [5] (setting [10]) it was 1520 nM.

As to `O=S(=O)(C1CC1)n1cc(-c2nccc(Nc3cc(NN4CCC(O)CC4)c(-c4ccn(C(F)F)n4)cn3)n2)cn1` [Example 153, 1-((2-((2-(1-(Cyclopropylsulfonyl)-1H-pyrazol-4-yl)pyrimidin-4-yl)amino)-5-(1-(difluoromethyl)-1H-pyrazol-3-yl)pyridin-4-yl)amino)piperidin-4-ol], the IC50 in assay [1] (setting [6]) worked out at 0.1 nM; in assay [2] (setting [7]) it was 0.1 nM; in assay [3] (setting [8]), 1.3 nM; in assay [4] (setting [9]), 0.1 nM; in assay [5] (setting [10]) it was 3.9 nM.

For the compound `O=S(=O)(C1CC1)n1cc(-c2nccc(Nc3cc(N[C@H]4CC[C@](O)(CO)CC4)c(-c4csc(N5CCOCC5)n4)cn3)n2)cn1` [Example 125, (1s,4s)-4-((2-((2-(1-(Cyclopropylsulfonyl)-1H-pyrazol-4-yl)pyrimidin-4-yl)amino)-5-(2-morpholinothiazol-4-yl)pyridin-4-yl)amino)-1-(hydroxymethyl)cyclohexan-1-ol], the IC50 in assay [1] (setting [6]) was found to be 0.7 nM; in assay [2] (setting [7]) it was 0.4 nM; in assay [3] (IC50 del19/C797S (nM) 100 μM ATP, 100 μM ATP) it was 18.5 nM; in assay [3] (setting [8]), 20.4 nM; in assay [4] (IC50 L858R/C797S (nM) 100 μM ATP, 100 μM ATP) it was 218 nM; in assay [4] (setting [9]), 10.8 nM. Besides, the IC50 in assay [5] (IC50 WT (nM) 100 μM ATP, 100 μM ATP) was greater than 10000 nM; in assay [5] (setting [10]), 144 nM.

Regarding `Cn1nc(-c2cnc(Nc3ccnc(-c4cnn(CC(F)F)c4)n3)cc2NN2CCC(O)CC2)cc1C(F)(F)F` [Example 163, 1-((2-((2-(1-(2,2-Difluoroethyl)-1H-pyrazol-4-yl)pyrimidin-4-yl)amino)-5-(1-methyl-5-(trifluoromethyl)-1H-pyrazol-3-yl)pyridin-4-yl)amino)piperidin-4-ol], the IC50 is 1.8 nM in assay [1] (setting [6]); 0.9 nM in assay [2] (setting [7]); 55.3 nM in assay [3] (setting [8]); 744 nM in assay [4] (setting [9]); 737 nM in assay [5] (setting [10]).

Regarding `C[C@]1(O)CC[C@@H](Nc2cc(Nc3ccnc(-c4cnc5c(c4)NCCO5)n3)ncc2-c2ccn(C(F)F)n2)CC1` [Example 154, (1s,4s)-4-((5-(1-(Difluoromethyl)-1H-pyrazol-3-yl)-2-((2-(2,3-dihydro-1H-pyrido[2,3-b][1,4]oxazin-7-yl)pyrimidin-4-yl)amino)pyridin-4-yl)amino)-1-methylcyclohexan-1-ol], the IC50 in assay [1] (setting [6]) stood at 0.3 nM; in assay [2] (setting [7]) it was 0.2 nM; in assay [3] (setting [8]), 128 nM; in assay [4] (setting [9]), 16.2 nM; in assay [5] (setting [10]), 377 nM.
